# Measurements reported in PubChem BioAssay AID1963971 (Molecular Pharmacology Branch, DTP, NCI, 2024).
# pIC50: −log10 of the molar value.
# Test system: 953936-095-R-J2-PDC spheroids with HUVEC/MSC, viability
# Experiment: Anticancer human tumor 953936-095-R-J2-PDC patient-derived cervical squamous cell carcinoma cell line growth inhibition [PI3K]
# Conditions: for pIC50: curve of first compound; for viability, T/C: stronger effect = lower value
# Outline: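 Three cell types, namely tumor cells, endothelial cells and mesenchymal stem cells, formed each spheroid. Combinations with four PI3K inhibitors were screened at clinically achievable concentrations decreasing by half-log, and spheroid viability was recorded.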
# [1] = second compound 0.0316 µM, first compound 0.0316 µM
# [2] = second compound 0.0316 µM, first compound 0.1 µM
# [3] = second compound 0.0316 µM, first compound 0.316 µM
# [4] = second compound 0.0316 µM, first compound 1 µM
# [5] = second compound 0.0316 µM, first compound 3.16 µM
# [6] = second compound 0.0316 µM, first compound 10 µM
# [7] = second compound 0.1 µM, first compound 0.0316 µM
# [8] = second compound 0.1 µM, first compound 0.1 µM
# [9] = second compound 0.1 µM, first compound 0.316 µM
# [10] = second compound 0.1 µM, first compound 1 µM
# [11] = second compound 0.1 µM, first compound 3.16 µM
# [12] = second compound 0.1 µM, first compound 10 µM
# [13] = second compound 0.316 µM, first compound 0.0316 µM
# [14] = second compound 0.316 µM, first compound 0.1 µM
# [15] = second compound 0.316 µM, first compound 0.316 µM
# [16] = second compound 0.316 µM, first compound 1 µM
# [17] = second compound 0.316 µM, first compound 3.16 µM
# [18] = second compound 0.316 µM, first compound 10 µM
# [19] = second compound 1 µM, first compound 0.0316 µM
# [20] = second compound 1 µM, first compound 0.1 µM
# [21] = second compound 1 µM, first compound 0.316 µM
# [22] = second compound 1 µM, first compound 1 µM
# [23] = second compound 1 µM, first compound 3.16 µM
# [24] = second compound 1 µM, first compound 10 µM
# [25] = second compound 3.16 µM, first compound 0.0316 µM
# [26] = second compound 3.16 µM, first compound 0.1 µM
# [27] = second compound 3.16 µM, first compound 0.316 µM
# [28] = second compound 3.16 µM, first compound 1 µM
# [29] = second compound 3.16 µM, first compound 3.16 µM
# [30] = second compound 3.16 µM, first compound 10 µM
# [31] = second compound 10 µM, first compound 0.0316 µM
# [32] = second compound 10 µM, first compound 0.1 µM
# [33] = second compound 10 µM, first compound 0.316 µM
# [34] = second compound 10 µM, first compound 1 µM
# [35] = second compound 10 µM, first compound 3.16 µM
# [36] = second compound 10 µM, first compound 10 µM
# 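Further: spheroids exposed to compounds for seven days before read-out.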
smiles,measurement,setting,value
C#Cc1c(F)ccc2cc(O)cc(-c3ncc4c(N5CC6CCC(C5)N6)nc(OCC56CCCN5CC(F)C6)nc4c3F)c12 (stereo unspecified) + CC(Nc1ncnc2nc[nH]c12)c1cc2cccc(Cl)c2c(=O)n1-c1ccccc1,pIC50,second compound 0.0316 µM,< 5.00
same,pIC50,second compound 0.1 µM,< 5.00
same,pIC50,second compound 0.316 µM,< 5.00
same,pIC50,second compound 1 µM,< 5.00
same,pIC50,second compound 3.16 µM,5.20
same,pIC50,second compound 10 µM,5.74
same,"viability, T/C",[1],90.6%
same,"viability, T/C",[2],91.9%
same,"viability, T/C",[3],105%
same,"viability, T/C",[4],97.1%
same,"viability, T/C",[5],91.3%
same,"viability, T/C",[6],67.2%
same,"viability, T/C",[7],95.2%
same,"viability, T/C",[8],98.3%
same,"viability, T/C",[9],99.9%
same,"viability, T/C",[10],104%
same,"viability, T/C",[11],80.2%
same,"viability, T/C",[12],70.8%
same,"viability, T/C",[13],94%
same,"viability, T/C",[14],95.2%
same,"viability, T/C",[15],90.5%
same,"viability, T/C",[16],82.2%
same,"viability, T/C",[17],75.2%
same,"viability, T/C",[18],67.8%
same,"viability, T/C",[19],96.2%
same,"viability, T/C",[20],83.5%
same,"viability, T/C",[21],84.7%
same,"viability, T/C",[22],86.9%
same,"viability, T/C",[23],80%
same,"viability, T/C",[24],57.2%
same,"viability, T/C",[25],87.9%
same,"viability, T/C",[26],79.5%
same,"viability, T/C",[27],76%
same,"viability, T/C",[28],74.3%
same,"viability, T/C",[29],60.3%
same,"viability, T/C",[30],42.6%
same,"viability, T/C",[31],55.8%
same,"viability, T/C",[32],65.4%
same,"viability, T/C",[33],51.7%
same,"viability, T/C",[34],57.3%
same,"viability, T/C",[35],43.3%
same,"viability, T/C",[36],31.2%
CC1(C)CCC(Nc2ncc(C(F)(F)F)c(-c3c[nH]c4c(P(C)(C)=O)c(C#N)ccc34)n2)CN1 (stereo unspecified) + CC(Nc1ncnc2nc[nH]c12)c1cc2cccc(Cl)c2c(=O)n1-c1ccccc1,pIC50,second compound 0.0316 µM,5.44
same,pIC50,second compound 0.1 µM,5.47
same,pIC50,second compound 0.316 µM,5.47
same,pIC50,second compound 1 µM,5.75
same,pIC50,second compound 3.16 µM,> 7.50
same,pIC50,second compound 10 µM,> 7.50
same,"viability, T/C",[1],52.6%
same,"viability, T/C",[2],55.8%
same,"viability, T/C",[3],57.6%
same,"viability, T/C",[4],61.3%
same,"viability, T/C",[5],56.1%
same,"viability, T/C",[6],7.92%
same,"viability, T/C",[7],52.2%
same,"viability, T/C",[8],53.5%
same,"viability, T/C",[9],53.7%
same,"viability, T/C",[10],62.5%
same,"viability, T/C",[11],51.9%
same,"viability, T/C",[12],6.89%
same,"viability, T/C",[13],60.1%
same,"viability, T/C",[14],53.2%
same,"viability, T/C",[15],44.6%
same,"viability, T/C",[16],49.9%
same,"viability, T/C",[17],56.3%
same,"viability, T/C",[18],6.08%
same,"viability, T/C",[19],59.9%
same,"viability, T/C",[20],49.7%
same,"viability, T/C",[21],49.2%
same,"viability, T/C",[22],46.3%
same,"viability, T/C",[23],49.2%
same,"viability, T/C",[24],5.38%
same,"viability, T/C",[25],45.9%
same,"viability, T/C",[26],46.7%
same,"viability, T/C",[27],49.3%
same,"viability, T/C",[28],44.5%
same,"viability, T/C",[29],45.7%
same,"viability, T/C",[30],3.11%
same,"viability, T/C",[31],38%
same,"viability, T/C",[32],36.5%
same,"viability, T/C",[33],38.4%
same,"viability, T/C",[34],39.6%
same,"viability, T/C",[35],42.1%
same,"viability, T/C",[36],1.76%
Cn1cnc2c(F)c(Nc3ccc(Br)cc3Cl)c(C(=O)NOCCO)cc21 + COc1c(OCCCN2CCOCC2)ccc2c3n(c(=NC(=O)c4cnc(N)nc4)nc12)CCN3,pIC50,second compound 0.00316 µM,6.43
same,pIC50,second compound 0.01 µM,7.09
same,pIC50,second compound 0.0316 µM,> 8.02
same,pIC50,second compound 0.1 µM,> 8.02
same,pIC50,second compound 0.316 µM,> 8.02
same,pIC50,second compound 1 µM,> 8.02
same,"viability, T/C","second compound 0.00316 µM, first compound 0.00949 µM",65.8%
same,"viability, T/C","second compound 0.00316 µM, first compound 0.03 µM",69.6%
same,"viability, T/C","second compound 0.00316 µM, first compound 0.0949 µM",52%
same,"viability, T/C","second compound 0.00316 µM, first compound 0.3 µM",59.1%
same,"viability, T/C","second compound 0.00316 µM, first compound 0.949 µM",36.6%
same,"viability, T/C","second compound 0.00316 µM, first compound 3 µM",25.4%
same,"viability, T/C","second compound 0.01 µM, first compound 0.00949 µM",63.4%
same,"viability, T/C","second compound 0.01 µM, first compound 0.03 µM",58.8%
same,"viability, T/C","second compound 0.01 µM, first compound 0.0949 µM",45.9%
same,"viability, T/C","second compound 0.01 µM, first compound 0.3 µM",42.1%
same,"viability, T/C","second compound 0.01 µM, first compound 0.949 µM",26.2%
same,"viability, T/C","second compound 0.01 µM, first compound 3 µM",18.3%
same,"viability, T/C","second compound 0.0316 µM, first compound 0.00949 µM",36.7%
same,"viability, T/C","second compound 0.0316 µM, first compound 0.03 µM",33.1%
same,"viability, T/C","second compound 0.0316 µM, first compound 0.0949 µM",19.7%
same,"viability, T/C","second compound 0.0316 µM, first compound 0.3 µM",15.4%
same,"viability, T/C","second compound 0.0316 µM, first compound 0.949 µM",7.92%
same,"viability, T/C","second compound 0.0316 µM, first compound 3 µM",4.93%
same,"viability, T/C","second compound 0.1 µM, first compound 0.00949 µM",12.6%
same,"viability, T/C","second compound 0.1 µM, first compound 0.03 µM",8.91%
same,"viability, T/C","second compound 0.1 µM, first compound 0.0949 µM",5.78%
same,"viability, T/C","second compound 0.1 µM, first compound 0.3 µM",3.64%
same,"viability, T/C","second compound 0.1 µM, first compound 0.949 µM",2.7%
same,"viability, T/C","second compound 0.1 µM, first compound 3 µM",0.27%
same,"viability, T/C","second compound 0.316 µM, first compound 0.00949 µM",3.5%
same,"viability, T/C","second compound 0.316 µM, first compound 0.03 µM",2.08%
same,"viability, T/C","second compound 0.316 µM, first compound 0.0949 µM",1.09%
same,"viability, T/C","second compound 0.316 µM, first compound 0.3 µM",0.45%
same,"viability, T/C","second compound 0.316 µM, first compound 0.949 µM",0.15%
same,"viability, T/C","second compound 0.316 µM, first compound 3 µM",0.17%
same,"viability, T/C","second compound 1 µM, first compound 0.00949 µM",0.66%
same,"viability, T/C","second compound 1 µM, first compound 0.03 µM",0.31%
same,"viability, T/C","second compound 1 µM, first compound 0.0949 µM",0.21%
same,"viability, T/C","second compound 1 µM, first compound 0.3 µM",0.16%
same,"viability, T/C","second compound 1 µM, first compound 0.949 µM",0.15%
same,"viability, T/C","second compound 1 µM, first compound 3 µM",0.2%
